# Test results from patent US6346260B1, “Microbicidal active ingredients” (Ciba Specialty Chemicals Corporation, priority 1999, dated 2002).
# Assays:
# Format in all cases: cell-based
# [1] = system: Aspergillus niger ATCC 6275; assay: MIC in microtitre plates, Aspergillus niger; settings: ATCC6275, 120 h; Table 2; Aspergillus niger ATCC 6275; 5 days at 28° C.; ≦20% growth; read-out: MIC AN
# Experimental: (§1) Determination of Antimicrobial Activity in Accordance with the Microtitre Plate Method Determination of the Minimum Inhibitory Concentration (MIC value) in Microtitre Plates Mycological slant agar for the preculture of moulds. Aspergillus niger ATCC 6275 The test substances are predissolved in dimethyl sulfoxide (DMSO) and tested in a dilution series of 1:2. Bacteria and yeast are cultured overnight in CASO bouillon, the mould on mycological slant agar and rinsed off with 10 ml of 0.85% sodium chloride solution (+0.1% TritonX-100). All test organisms are adjusted to an organism count of 1-5*10^6 CFU/ml with 0.85% sodium chloride solution. The test substances are prepipetted into microtitre plates in an amount of 8 μl per well. Previously diluted test organism suspensions are diluted 1:100 in CASO bouillon (bacteria and yeast) and Sabouraud 2% glucose bouillon (mould) and added to the test substances in an amount of 192 μl per well. The test batches are incubated for 48 hours at 37° C. (bacteria and yeast) or for 5 days at 28° C. (mould). After incubation, the growth is determined by reference to the turbidity of the test batches (optical density) at 620 nm in a microplate reader. The minimum inhibitory concentration (MIC value) is the concentration of substance at which (compared with the growth of the control) an appreciable inhibition of the growth (≦20% growth) of the test organisms is ascertained. One microtitre plate is used for each test organism and substance concentration. All substances are tested in duplicate.
# [2] = system: Escherichia coli NCTC 8196; assay: MIC in microtitre plates, Escherichia coli; settings: NCTC8196; Table 2; Escherichia coli NCTC 8196; 48 hours at 37° C.; ≦20% growth; read-out: MIC EC
# Experimental: as §1, with “casein-soybean flour-peptone bouillon” for “Mycological slant agar”, “preparation” for “preculture”, “the precultures of the test bacteria and yeast. Escherichia coli NCTC 8196” for “moulds. Aspergillus niger ATCC 6275”
# [3] = system: Staphylococcus hominis DSM 20368; assay: MIC in microtitre plates, Staphylococcus hominis; settings: DSM20368, Table 2, 48 hours at 37° C., ≦20% growth
# Experimental: as §1, with “casein-soybean flour-peptone bouillon” for “Mycological slant agar”, “preparation” for “preculture”, “the precultures of the test bacteria and yeast. Staphylococcus hominis DSM 20328” for “moulds. Aspergillus niger ATCC 6275”
# [4] = system: Pseudomonas aeruginosa CIP A-22; assay: MIC in microtitre plates, Pseudomonas aeruginosa; settings: CIPA22; Table 2; Pseudomonas aeruginosa CIP-A 22; 48 hours at 37° C.; ≦20% growth; read-out: MIC PA
# Experimental: as §1, with “casein-soybean flour-peptone bouillon” for “Mycological slant agar”, “preparation” for “preculture”, “the precultures of the test bacteria and yeast. Pseudomonas aeruginosa CIP A-22” for “moulds. Aspergillus niger ATCC 6275”
# [5] = system: Candida albicans ATCC 10231; assay: MIC in microtitre plates, Candida albicans; settings: ATCC10231; Table 2; Candida albicans ATCC 10231; 48 hours at 37° C.; ≦20% growth; read-out: MIC CA
# Experimental: as §1, with “casein-soybean flour-peptone bouillon” for “Mycological slant agar”, “preparation” for “preculture”, “the precultures of the test bacteria and yeast. Candida albicans” for “moulds. Aspergillus niger”, “10231” for “6275”
SMILES,MIC [1],MIC [2],MIC [3],MIC [4],MIC [5]
O=C(CC(=O)c1cccs1)c1ccc(O)cc1 [(103)],> 120 µg/mL,> 120 µg/mL,> 120 µg/mL,> 120 µg/mL,> 120 µg/mL
COc1ccccc1C(=O)CC(=O)c1ccc(O)cc1 [(105)],> 120 µg/mL,> 120 µg/mL,> 120 µg/mL,> 120 µg/mL,> 120 µg/mL
Cc1ccccc1C(=O)CC(=O)c1ccc(O)cc1 [(106)],> 120 µg/mL,> 120 µg/mL,> 120 µg/mL,> 120 µg/mL,> 120 µg/mL
COc1ccc(C(=O)CC(=O)c2ccc(O)cc2)cc1OC [(107)],120 µg/mL,120 µg/mL,> 120 µg/mL,> 120 µg/mL,> 120 µg/mL
COc1cc(C(=O)CC(=O)c2ccc(O)cc2)cc(OC)c1OC [(108)],> 120 µg/mL,> 120 µg/mL,> 120 µg/mL,> 120 µg/mL,> 120 µg/mL
COC(=O)c1cccc(C(=O)CC(=O)c2ccc(O)cc2)c1 [(109)],> 120 µg/mL,> 120 µg/mL,> 120 µg/mL,> 120 µg/mL,> 120 µg/mL
O=C(CC(=O)c1cccc(C(F)(F)F)c1)c1ccc(O)cc1 [(110)],60 µg/mL,60 µg/mL,> 120 µg/mL,> 120 µg/mL,> 120 µg/mL
O=C(CC(=O)c1ccc(O)cc1)c1ccccc1 [(111)],> 120 µg/mL,> 120 µg/mL,> 120 µg/mL,> 120 µg/mL,> 120 µg/mL
Cc1ccc(O)c(C(=O)CC(=O)c2ccccc2)c1 [(112)],> 120 µg/mL,> 120 µg/mL,> 120 µg/mL,> 120 µg/mL,> 120 µg/mL
Cc1cc(O)c(C(=O)CC(=O)c2ccccc2)cc1Cl [(113)],> 120 µg/mL,> 120 µg/mL,> 120 µg/mL,> 120 µg/mL,> 120 µg/mL
O=C(CC(=O)c1cc(Br)ccc1O)c1ccccc1 [(114)],> 120 µg/mL,> 120 µg/mL,> 120 µg/mL,> 120 µg/mL,> 120 µg/mL
O=C(CC(=O)c1ccccc1O)c1ccccc1 [(115)],> 120 µg/mL,> 120 µg/mL,> 120 µg/mL,> 120 µg/mL,> 120 µg/mL
